Measurements reported in paper PMC3748599 (Environmental science & technology, 2013).
Read-outs that look alike come from different tables or passages of the source.

How the values were obtained:
[1] = system: rat liver microsomes; assay: Enantioselective analysis; assay type: in vitro ADME; settings: for enantiomeric fraction (EF) of metabolite, range: range over microsomal preparations; for enantiomeric enrichment of the parent compound: racemic substrate
[2] = system: rat liver microsomes; settings: for parent compound detected at end of incubation (% of initial amount): 30 min; for HEPOXB formed (% of the HEPTA added): substrate HEPTA
[3] = system: CYP3A; settings: liver microsomes of pretreated male rats; cited from earlier work
[4] = system: CYP2B; settings: liver microsomes of pretreated male rats; cited from earlier work
[5] = system: CYP1A; settings: liver microsomes of pretreated male rats; cited from earlier work
[6] = cited from earlier work
[7] = formed from cis- and trans-chlordane
[8] = substrate racemic C-CHLORD, microsomes from PB-pretreated rats
[9] = microsomes from DX-pretreated rats
[10] = microsomes from PB-pretreated rats
[11] = microsomes from VH-pretreated rats
[12] = microsomes from DX- and VH-pretreated rats

In the case of `ClC1=CC2C(C1Cl)C1(Cl)C(Cl)=C(Cl)C2(Cl)C1(Cl)Cl` (stereo not drawn) [DCC, 1,2-dichlorochlordene], the “enantiomeric fraction (EF) of metabolite, range” value (“enantiomeric fraction (EF)” below) [1, 7] is reported as 0.42-0.90, the “enantiomeric enrichment of metabolite” value ([1]; substrate racemic C-CHLORD, microsomes from DX-pretreated rats) is reported as “clear enrichment of E1-DCC” and the “enantiomeric enrichment of metabolite” value [1, 8] is reported as “enrichment of E2-DCC”. The “enantiomeric enrichment of metabolite” value ([1]; substrate racemic C-CHLORD, microsomes from VH-pretreated rats) was “clear enrichment of E1-DCC”.

With `ClC1=C(Cl)C2(Cl)[C@H]3C[C@H](Cl)[C@H](Cl)[C@H]3C1(Cl)C2(Cl)Cl` (stereo partly drawn) [C-CHLORD, cis-Chlordane] the “enantiomeric enrichment of the parent compound” value [1, 9] was “did not reach statistical significance”, the “enantiomeric enrichment of the parent compound” value [1, 10] was “(-)-C-CHLORD was only modestly enriched” and the “enantiomeric enrichment of the parent compound” value [1, 11] was “(-)-C-CHLORD was only modestly enriched”. For the same compound, the “change of parent compound levels in incubation” value (“change of parent compound levels” below) [2, 12] was “no statistically significant change” and the “change of parent compound levels” value [2, 10] was “clearly decreased”.

In the case of `CCC1(c2ccccc2)C(=O)NC(=O)NC1=O` [PB, phenobarbital], the “CYP3A activity relative to microsomes from VH-pretreated animals” value [3] is given as 2 times, the “CYP2B activity relative to microsomes from VH-pretreated animals” value [4] is given as 96 times and the “CYP1A activity relative to microsomes from VH-pretreated animals” value [5] is given as 4 times.

With `ClC1=C(Cl)C2(Cl)C3C(Cl)C=CC3C1(Cl)C2(Cl)Cl` (stereo not drawn) [HEPTA, Heptachlor] the “formation as metabolite from both chlordane isomers” value ([2]; microsomal incubations with T-CHLORD and C-CHLORD) was “not detected”, the “change of parent compound levels” value [2, 12] was “significant decrease” and the “change of parent compound levels” value [2, 10] was “significant decrease”. The “parent compound detected at end of incubation (% of initial amount)” value [2, 10] was 6%.

For `ClC1=C(Cl)[C@]2(Cl)[C@@H]3[C@@H](Cl)[C@H]4O[C@H]4[C@@H]3[C@@]1(Cl)C2(Cl)Cl` (single isomer, unassigned; isomer b) [HEPOXB, heptachlor epoxide isomer B], the “enantiomeric fraction (EF)” value ([1]; formed from heptachlor) was 0.44-0.54, the “enantiomeric enrichment of metabolite” value ([1]; substrate racemic HEPTA, microsomes from DX-pretreated rats) was “enrichment of (-)-HEPOXB” and the “enantiomeric enrichment of metabolite” value ([1]; substrate racemic HEPTA, microsomes from PB-pretreated rats) was “slight but significant enrichment of (+)-HEPOXB”. For the same compound, the “enantiomeric enrichment of metabolite” value ([1]; substrate racemic HEPTA, microsomes from VH-pretreated rats) was “enrichment of (-)-HEPOXB”, the “HEPOXB formed (% of the HEPTA added)” value [2, 9] was 47% and the “HEPOXB formed (% of the HEPTA added)” value [2, 10] was 82%. The “HEPOXB formed (% of the HEPTA added)” value [2, 11] was 33%.

With `ClC1=C(Cl)[C@]2(Cl)[C@H]3[C@H](Cl)[C@@H](Cl)C[C@H]3[C@@]1(Cl)C2(Cl)Cl` (relative stereo) [T-CHLORD, trans-chlordane] the “enantiomeric enrichment of the parent compound” value [1, 9] was “slight enrichment of (-)-T-CHLORD”, the “enantiomeric enrichment of the parent compound” value [1, 10] was “(-)-T-CHLORD was highly enriched” and the “enantiomeric enrichment of the parent compound” value [1, 11] was “No enantiomeric enrichment”. For the same compound, the “parent compound detected at end of incubation (% of initial amount)” value [2, 9] was 80%, the “parent compound detected at end of incubation (% of initial amount)” value [2, 10] was 32% and the “parent compound detected at end of incubation (% of initial amount)” value [2, 11] was 94%. The “enantiomeric enrichment in tissues” value ([6]; rats treated with T-CHLORD) was “(-)-T-CHLORD is enriched”.

In the case of `ClC1=C(Cl)[C@]2(Cl)[C@@H]3[C@@H](Cl)[C@@H]4O[C@@H]4[C@@H]3[C@@]1(Cl)C2(Cl)Cl` (single isomer, unassigned; isomer a) [HEPOXA, heptachlor epoxide isomer A], the “formation as metabolite from HEPTA” value ([2]; all three rat liver microsomal preparations) is reported as “not to HEPOXA”.

For `ClC1=C(Cl)[C@]2(Cl)[C@H]3[C@H]([C@H](Cl)[C@]4(Cl)O[C@H]34)[C@@]1(Cl)C2(Cl)Cl` [OXY, oxychlordane], the “enantiomeric fraction (EF)” value [1, 7] was 0.45-0.89, the “enantiomeric enrichment of metabolite” value [1, 8] was “(+)-OXY was enriched” and the “enantiomeric enrichment of metabolite” value ([1]; substrate racemic T-CHLORD, microsomes from DX-pretreated rats) was “(-)-OXY was slightly enriched”. For the same compound, the “enantiomeric enrichment of metabolite” value ([1]; substrate racemic T-CHLORD, microsomes from PB-pretreated rats) was “Enrichment of (+)-OXY”, the “OXY formed (% of the total C-CHLORD added)” value ([2]; substrate C-CHLORD, microsomes from PB-pretreated rats) was “approximately 2%” and the “OXY levels formed, PB versus DX microsomes” value ([2]; substrate T-CHLORD, PB- versus DX-pretreated rats) was 9 times. The “enantiomeric enrichment in vivo” value ([6]; female rats treated for 28 days with trans-nonachlor or T-CHLORD) was “enrichment of (+)-OXY” and the “enantiomeric enrichment in vivo” value ([6]; male rats, all time-points investigated) was “(-)-OXY was enriched”.
